In publication PMC6329299 (The pharmacogenomics journal, 2015):
Counter-ions that a name gives are not always drawn.

Key:
[1] = Hydrolysis by human kidney s9 fractions; assay type: in vitro ADME; details: substrate 100 μM, 3 concentrations of HKS9
[2] = Hydrolysis; details: for Vmax: HLS9, PBS pH 7.4, 37 °C, unit for ACEIs other than enalapril; for Km: human, pooled human liver s9 fractions (HLS9), pH 7.4; for Hydrolysis to active metabolite by human liver s9 fractions: prodrug 100 μM, 3 concentrations of HLS9
[3] = Hydrolysis by human intestine s9 fractions; assay type: in vitro ADME; details: substrate 100 μM, 3 concentrations of HIS9
[4] = substrate: CCOC(=O)[C@H](CCc1ccccc1)N[C@@H](C)C(=O)N1CCC[C@H]1C(=O)O; test: not read; details: other: WT CES1 cell s9; pH 7.4
[5] = substrate: CCC[C@H](N[C@@H](C)C(=O)N1[C@H](C(=O)O)C[C@@H]2CCCC[C@@H]21)C(=O)OCC; test: not read; details: other: WT CES1 cell s9; pH 7.4
[6] = substrate: CCC(=O)O[C@@H](O[P@](=O)(CCCCc1ccccc1)CC(=O)N1C[C@H](C2CCCCC2)C[C@H]1C(=O)O)C(C)C; test: not read; details: other: WT CES1 cell s9; pH 7.4
[7] = substrate: CCOC(=O)[C@H](CCc1ccccc1)N[C@@H](C)C(=O)N1Cc2cc(OC)c(OC)cc2C[C@H]1C(=O)O; test: not read; details: other: WT CES1 cell s9; pH 7.4
[8] = substrate: CCOC(=O)[C@H](CCc1ccccc1)N[C@@H](C)C(=O)N1[C@H](C(=O)O)C[C@@H]2CCC[C@@H]21; test: not read; details: other: WT CES1 cell s9; pH 7.4

Molecule	Hydrolysis by human kidney s9 fractions [1]	Vmax [2] [nmole/min/mg protein]	Km [2] [µM]	Hydrolysis to active metabolite by human liver s9 fractions [2]	Hydrolysis by human intestine s9 fractions [3]	also measured
CCC(=O)O[C@@H](O[P@](=O)(CCCCc1ccccc1)CC(=O)N1C[C@H](C2CCCCC2)C[C@H]1C(=O)O)C(C)C [Fosinopril, Fosinopril sodium salt]	No appreciable activation	1.4 ± 0.2	471 ± 212	efficiently hydrolyzed	No appreciable activation	–
CCOC(=O)[C@H](CCc1ccccc1)N[C@@H](C)C(=O)N1Cc2cc(OC)c(OC)cc2C[C@H]1C(=O)O [Moexipril, moexipril hydrochloride]	No appreciable activation	4.4 ± 0.3	1460 ± 266	efficiently hydrolyzed	No appreciable activation	–
CC(=O)Oc1ccc([N+](=O)[O-])cc1 [PNPA, p-nitrophenyl acetate]	readily hydrolyzed	–	–	–	readily hydrolyzed	–
CCC[C@H](N[C@@H](C)C(=O)N1[C@H](C(=O)O)C[C@@H]2CCCC[C@@H]21)C(=O)OCC [Perindopril, perindopril erbumine]	No appreciable activation	18.1 ± 0.8	1770 ± 165	efficiently hydrolyzed	No appreciable activation	–
wild type (WT) CES1 (Homo sapiens) (protein) AGHPSSPPVVDTVHGKVLGKFVSLEGFAQPVAIFLGIPFAKPPLGPLRFTPPQPAEPWSFVKNATSYPPMCTQDPKAGQLLSELFTNRKENIPLKLSEDCLYLNIYTPADLTKKNRLPVMVWIHGGGLMVGAASTYDGLALAAHENVVVVTIQYRLGIWGFFSTGDEHSRGNWGHLDQVAALRWVQDNIASFGGNPGSVTIFGESAGGESVSVLVLSPLAKNLFHRAISESGVALTSVLVKKGDVKPLAEQIAITAGCKTTTSAVMVHCLRQKTEEELLETTLKMKFLSLDLQGDPRESQPLLGTVIDGMLLLKTPEELQAERNFHTVPYMVGINKQEFGWLIPMQLMSYPLSEGQLDQKTAMSLLWKSYPLVCIAKELIPEATEKYLGGTDDTVKKKDLFLDLIADVMFGVPSVIVARNHRDAGAPTYMYEFQYRPSFSSDMKPKTVIGDHGDELFSVFGAPFLKEGASEEEIRLSKMVMKFWANFARNGNPNGEGLPHWPEYNQKEGYLQIGANTQAAQKLKDKEVAFWTNLFAKKAVEKPPQTEHIEL	–	–	–	–	–	Km [4]: 36.6 ± 4.5 µM; Vmax [4]: 389.0 ± 16.1 pmole/min/mg protein; Vmax/Km [4]: 10.6 μl/min/mg protein; Km [5]: 477.5 ± 60.9 µM; Vmax [5]: 8.3 ± 0.4 nmole/min/mg protein; Vmax/Km [5]: 17.4 μl/min/mg protein; Km [6]: 276.1 ± 83.2 µM; Vmax [6]: 1.6 ± 0.1 nmole/min/mg protein; Vmax/Km [6]: 5.7 μl/min/mg protein; Km [7]: 143.6 ± 24.5 µM; Vmax [7]: 1.8 ± 0.1 nmole/min/mg protein; Vmax/Km [7]: 12.4 μl/min/mg protein; Km [8]: 245.6 ± 39.9 µM; Vmax [8]: 11.6 ± 0.6 nmole/min/mg protein; Vmax/Km [8]: 47.1 μl/min/mg protein
